Assay results reported in patent US20210395239A1 (Hoffmann-La Roche Inc., priority 2018, published 2021).

What was measured:
CYP2C9 = biological target: T1, CYP2C9 (Homo sapiens, UniProt P11712); test: CYP inhibition assay in human liver microsome, CYP2C9; type: in vitro ADME; conditions: human, human liver microsomes, probe diclofenac 5 μM, substrate diclofenac 5 μM, first value of 2C9/2D6/3A4
T1 construct: tissue BD-Gentest 452117; host or cells: human liver microsomes
Method: (§1) This is a high throughput screening assay used for assessment of reversible inhibition of CYP2C9, CYP2D6, and CYP3A4 activity of test compounds in human liver microsome (HLM) in early discovery stage.
(§2) 10 mM DMSO stock solutions of test compounds were diluted in DMSO to generate 2 mM intermediate stock solution. 250 nL, of intermediate stock solution were transferred in duplicate into 3 separate 384 well microtitre plates (assay-ready plates). A mixture of HLM and each substrate was made up. 45 μL of HLM substrate mix was then transferred to each well of an assay ready plate and mixed. The negative (solvent) and positive controls (standard inhibitor for each CYP) were included in each assay ready plate. The assay ready plate was warmed to 37° C. in an incubator over 10 minutes. 5 μL pre-warmed NADPH regenerating system was added to each incubation well to start the reaction. Final incubation volume was 50 μL. The assay plate then was placed back in the 37° C. incubator. After incubation (10 minutes for CYP2D6) for 5 minutes, incubates were quenched by addition of 50 μL 100% acetonitrile containing internal standards (400 ng/mL 13C6-4′-OH-Diclofenac, 20 ng/mL D3-Dextrorphan and 20 ng/mL D4-1′OH-Midazolam). The supernatants were collected for RapidFire/MS/MS analysis.
(§3) RapidFire online solid phase extraction/sample injection system (Agilent) coupled with API4000 triple quadrupole mass spectrometer (AB Sciex) were used for sample analysis. The mobile phase composed of acetonitrile and water supplemented with 0.1% formic acid. A C4 solid phase extraction cartridge is used for sample separation. MS detection is achieved in positive ion MRM mode.
(§4) Peak areas for substrate, metabolite and internal standard are determined using the RapidFire integrator software (version 3.6.12009.12296). Peak area ratios (PAR) of metabolite and internal standard (stable-labelled metabolite) are then calculated. The measurement window for each experiment is then defined:
(§5) PAR (0% activity)=average PAR for all incubations containing concentrated inhibitor; Par (100% activity)=average PAR for all incubations containing no inhibitor (DMSO controls); % Activity (test inhibitor)=[PAR (test inhibitor)−PAR (0% activity)]/[PAR (100% activity)−PAR (0% activity)]; % Inhibition (test inhibitor)=100-% Activity (test inhibitor).

CYP2D6 = biological target: T2, CYP2D6 (Homo sapiens, UniProt P10635); test: CYP inhibition assay in human liver microsome, CYP2D6; type: in vitro ADME; conditions: human, human liver microsomes, probe dextromethorphan 5 μM, substrate dextromethorphan 5 μM, second value of 2C9/2D6/3A4
T2 construct: tissue BD-Gentest 452117; host or cells: human liver microsomes
Method: as §1, §2, §3, §4, §5

hERG channel = biological target: T3, hERG channel (Homo sapiens, UniProt Q12809); test: hERG channel inhibition assay (patch-clamp, CHOhERG cells); type: cell-based; conditions: for IC20: human, CHO cells stably expressing hERG (CHOhERG); for IC20 / IC50: patch-clamp, CHOhERG cells; for hERG IC20/TLR7 IC50 / hERG IC20/TLR8 IC50 / hERG IC20/TLR9 IC50: safety ratio
T3 construct: expressed in transfected cells; host or cells: CHO (Chinese hamster ovary)
Method: hERG Channel Inhibition Assay:
The hERG K^+ channels were cloned in humans and stably expressed in a CHO (Chinese hamster ovary) cell line. CHOhERG cells were used for patch-clamp (voltage-clamp, whole-cell) experiments. Cells were stimulated by a voltage pattern to activate hERG channels and conduct IKhERG currents (rapid delayed outward rectifier potassium current of the hERG channel). After the cells were stabilized for a few minutes, the amplitude and kinetics of IKhERG were recorded at a stimulation frequency of 0.1 Hz, (6 bpm). Thereafter, the test compound was added to the preparation at increasing concentrations. For each concentration, an attempt was made to reach a steady-state effect, usually, this was achieved within 3-10 min at which time the next highest concentration was applied. The amplitude and kinetics of IKhERG are recorded in each concentration of the drug which were compared to the control values (taken as 100%). (references: Redfern W S, Carlsson L, Davis A S, Lynch W G, MacKenzie I, Palethorpe S, Siegl P K, Strang I, Sullivan A T, Wallis R, Camm A J, Hammond T G. 2003; Relationships between preclinical cardiac electrophysiology, clinical QT interval prolongation and torsade de pointes for a broad range of drugs: evidence for a provisional safety margin in drug development. Cardiovasc. Res. 58:32-45, Sanguinetti M C, Tristani-Firouzi M. 2006; hERG potassium channels and cardiac arrhythmia. Nature 440:463-469, Webster R, Leishman D, Walker D. 2002; Towards a drug concentration effect relationship for QT prolongation and torsades de pointes. Curr. Opin. Drug Discov. Devel. 5:116-26).

T2 sequence (P10635 whole entry): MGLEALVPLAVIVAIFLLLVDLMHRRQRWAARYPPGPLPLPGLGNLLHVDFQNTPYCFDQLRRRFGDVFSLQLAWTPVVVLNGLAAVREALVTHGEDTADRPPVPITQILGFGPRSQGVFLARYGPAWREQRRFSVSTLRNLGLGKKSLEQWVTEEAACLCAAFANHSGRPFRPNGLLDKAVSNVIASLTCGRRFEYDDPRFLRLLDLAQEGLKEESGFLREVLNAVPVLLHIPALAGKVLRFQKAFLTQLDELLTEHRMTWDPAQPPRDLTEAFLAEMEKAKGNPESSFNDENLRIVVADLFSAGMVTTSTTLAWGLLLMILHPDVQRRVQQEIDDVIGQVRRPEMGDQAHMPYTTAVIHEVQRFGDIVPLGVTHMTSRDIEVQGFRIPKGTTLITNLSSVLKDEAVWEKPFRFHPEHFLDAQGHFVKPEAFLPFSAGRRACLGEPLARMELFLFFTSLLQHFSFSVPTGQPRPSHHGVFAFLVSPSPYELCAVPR
T3 sequence (Q12809 whole entry): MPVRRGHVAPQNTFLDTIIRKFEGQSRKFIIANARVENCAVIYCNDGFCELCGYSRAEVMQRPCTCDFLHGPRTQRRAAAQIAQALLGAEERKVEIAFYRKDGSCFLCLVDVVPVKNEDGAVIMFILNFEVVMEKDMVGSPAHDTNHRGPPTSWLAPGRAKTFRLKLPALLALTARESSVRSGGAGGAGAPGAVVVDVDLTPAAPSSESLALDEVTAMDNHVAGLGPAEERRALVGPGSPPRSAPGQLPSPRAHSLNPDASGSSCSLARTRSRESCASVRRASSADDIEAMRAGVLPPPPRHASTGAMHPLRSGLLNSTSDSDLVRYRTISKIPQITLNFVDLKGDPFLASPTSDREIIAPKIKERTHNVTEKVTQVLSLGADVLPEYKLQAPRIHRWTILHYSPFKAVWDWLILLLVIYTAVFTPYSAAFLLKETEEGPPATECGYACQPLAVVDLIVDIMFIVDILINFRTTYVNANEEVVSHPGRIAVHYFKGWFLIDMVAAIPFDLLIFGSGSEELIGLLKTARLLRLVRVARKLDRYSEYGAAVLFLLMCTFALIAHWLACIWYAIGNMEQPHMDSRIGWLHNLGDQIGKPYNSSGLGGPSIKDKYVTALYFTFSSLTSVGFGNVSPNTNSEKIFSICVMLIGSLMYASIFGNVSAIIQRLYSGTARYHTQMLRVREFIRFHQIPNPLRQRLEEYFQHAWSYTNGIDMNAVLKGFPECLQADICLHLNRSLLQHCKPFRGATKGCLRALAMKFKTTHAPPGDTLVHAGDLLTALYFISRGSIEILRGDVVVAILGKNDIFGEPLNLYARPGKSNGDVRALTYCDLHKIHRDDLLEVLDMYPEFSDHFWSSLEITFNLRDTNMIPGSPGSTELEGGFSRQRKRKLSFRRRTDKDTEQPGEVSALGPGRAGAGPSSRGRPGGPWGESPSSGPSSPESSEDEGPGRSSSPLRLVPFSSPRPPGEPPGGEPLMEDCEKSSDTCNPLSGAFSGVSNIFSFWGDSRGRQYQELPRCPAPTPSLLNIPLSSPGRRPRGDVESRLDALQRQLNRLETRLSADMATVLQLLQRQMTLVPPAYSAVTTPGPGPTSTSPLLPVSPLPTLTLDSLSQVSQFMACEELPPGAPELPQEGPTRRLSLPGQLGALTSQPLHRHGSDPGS
T1 sequence (P11712 whole entry): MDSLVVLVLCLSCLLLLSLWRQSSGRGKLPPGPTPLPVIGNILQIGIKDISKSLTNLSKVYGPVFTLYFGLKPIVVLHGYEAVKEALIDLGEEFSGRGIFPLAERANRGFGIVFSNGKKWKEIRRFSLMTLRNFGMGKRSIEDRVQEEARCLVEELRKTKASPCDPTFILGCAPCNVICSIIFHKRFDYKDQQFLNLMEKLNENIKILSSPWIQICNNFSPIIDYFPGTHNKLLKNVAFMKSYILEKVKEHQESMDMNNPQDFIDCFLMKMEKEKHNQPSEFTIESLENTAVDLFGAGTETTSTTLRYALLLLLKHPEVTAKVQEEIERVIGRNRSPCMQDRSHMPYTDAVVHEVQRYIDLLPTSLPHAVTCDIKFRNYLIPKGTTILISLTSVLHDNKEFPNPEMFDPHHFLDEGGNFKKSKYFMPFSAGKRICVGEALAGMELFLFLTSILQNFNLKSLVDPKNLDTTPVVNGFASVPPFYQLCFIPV

SMILES	inhibition at 5 min, 10 µM (CYP2C9) [%]	inhibition at 10 min, 10 µM (CYP2D6) [%]	IC20 (hERG channel) [µM]	IC50 (hERG channel) [µM]	hERG IC20/TLR7 IC50 (hERG channel)	hERG IC20/TLR8 IC50 (hERG channel)	hERG IC20/TLR9 IC50 (hERG channel)
C[C@@H]1CN(c2ccc(C#N)c3ncccc23)C[C@H](CN2CCC(c3cccc(N4CCNCC4)c3)C2)O1 (stereo partly drawn) [Example 1, 5-[(2R,6S)-2-methyl-6-[[3-(3-piperazin-1-ylphenyl)pyrrolidin-1-yl]methyl]morpholin-4-yl]quinoline-8-carbonitrile]	-7	5	–	–	–	–	–
C[C@@H]1CN(c2ccc(C#N)c3ncccc23)C[C@H](CN2CCC(c3cccc(C4CCNCC4)c3)CC2)O1 [Example 2, 5-[(2R,6S)-2-methyl-6-[[4-[3-(4-piperidyl)phenyl]-1-piperidyl]methyl]morpholin-4-yl]quinoline-8-carbonitrile]	2	20	–	–	–	–	–
C[C@@H]1CN(c2ccc(C#N)c3ncccc23)C[C@H](CN2CC(c3ccc(N4CCNCC4)cc3)C2)O1 [Example 3, 5-[(2R,6S)-2-methyl-6-[[3-(4-piperazin-1-ylphenyl)azetidin-1-yl]methyl]morpholin-4-yl]quinoline-8-carbonitrile]	-18	13.5	–	–	–	–	–
C[C@@H]1CN(c2ccc(C#N)c3ncccc23)C[C@H](CN2CC(c3cccc(N4CCNCC4)c3)C2)O1 [Example 4, 5-[(2R,6S)-2-methyl-6-[[3-(3-piperazin-1-ylphenyl)azetidin-1-yl]methyl]morpholin-4-yl]quinoline-8-carbonitrile]	5.5	11	–	–	–	–	–
CO[C@@H]1CN(c2nccc(N3CCN(C[C@H]4CN(c5ccc(C#N)c6nccnc56)C[C@@H](C)O4)CC3)n2)C[C@H]1N [Example 98, 8-[(2S,6R)-2-[[4-[2-[(3R,4R)-3-amino-4-methoxy-pyrrolidin-1-yl]pyrimidin-4-yl]piperazin-1-yl]methyl]-6-methyl-morpholin-4-yl]quinoxaline-5-carbonitrile]	–	–	> 10	> 20	>1666	>10000	>204
CO[C@H]1CN(c2nccc(N3CCN(C[C@H]4CN(c5ccc(C#N)c6nccnc56)C[C@@H](C)O4)CC3)n2)C[C@@H]1N [Example 99, 8-[(2S,6R)-2-[[4-[2-[(3S,4S)-3-amino-4-methoxy-pyrrolidin-1-yl]pyrimidin-4-yl]piperazin-1-yl]methyl]-6-methyl-morpholin-4-yl]quinoxaline-5-carbonitrile]	–	–	9	> 20	818	9000	142
CO[C@H]1CN(c2nc(C)cc(N3CCN(C[C@H]4CN(c5ccc(C#N)c6nccnc56)C[C@@H](C)O4)CC3)n2)C[C@@H]1N [Example 106, 8-[(2S,6R)-2-[[4-[2-[(3S,4S)-3-amino-4-methoxy-pyrrolidin-1-yl]-6-methyl-pyrimidin-4-yl]piperazin-1-yl]methyl]-6-methyl-morpholin-4-yl]quinoxaline-5-carbonitrile]	17	3	–	–	–	–	–
C[C@@H]1CN(c2ccc(C#N)c3nccnc23)C[C@H](CN2CCN(c3ccnc(N4C[C@H](N)[C@@H](F)C4)n3)CC2)O1 [Example 107, 8-[(2S,6R)-2-[[4-[2-[(3S,4S)-3-amino-4-fluoro-pyrrolidin-1-yl]pyrimidin-4-yl]piperazin-1-yl]methyl]-6-methyl-morpholin-4-yl]quinoxaline-5-carbonitrile]	19.5	16	–	–	–	–	–
C[C@@H]1CN(c2ccc(C#N)c3ncccc23)C[C@H](CN2CCN(c3ccnc(N4C[C@H](N)[C@@H](F)C4)n3)CC2)O1 [Example 110, 5-[(2S,6R)-2-[[4-[2-[(3S,4S)-3-amino-4-fluoro-pyrrolidin-1-yl]pyrimidin-4-yl]piperazin-1-yl]methyl]-6-methyl-morpholin-4-yl]quinoline-8-carbonitrile]	22	13.5	–	–	–	–	–
Cc1cc(N2CCN(C[C@H]3CN(c4ccc(C#N)c5nccnc45)C[C@@H](C)O3)CC2)nc(N2CC(N)C2)n1 [Example 112, 8-[(2S,6R)-2-[[4-[2-(3-aminoazetidin-1-yl)-6-methyl-pyrimidin-4-yl]piperazin-1-yl]methyl]-6-methyl-morpholin-4-yl]quinoxaline-5-carbonitrile]	0.5	-2	–	–	–	–	–
Cc1ccc(N2C[C@H](CN3CCN(c4nccc(N5CCNCC5)n4)CC3)O[C@H](C)C2)c2nccnc12 [Example 116, (2R,6S)-2-methyl-4-(8-methylquinoxalin-5-yl)-6-[[4-(4-piperazin-1-ylpyrimidin-2-yl)piperazin-1-yl]methyl]morpholine]	-8.5	10	–	–	–	–	–
Cc1ccc(N2C[C@H](CN3CCN(c4ccnc(N5CCNCC5)n4)CC3)O[C@H](C)C2)c2nccnc12 [Example 117, (2R,6S)-2-methyl-4-(8-methylquinoxalin-5-yl)-6-[[4-(2-piperazin-1-ylpyrimidin-4-yl)piperazin-1-yl]methyl]morpholine]	8.5	4.5	–	–	–	–	–
C[C@@H]1CN(c2ccc(C#N)c3nccnc23)C[C@H](CN2CCN(c3nccc(N4CC(N)C4)n3)CC2)O1 [Example 118, 8-[(2S,6R)-2-[[4-[4-(3-aminoazetidin-1-yl)pyrimidin-2-yl]piperazin-1-yl]methyl]-6-methyl-morpholin-4-yl]quinoxaline-5-carbonitrile]	–	–	> 10	> 20	>2500	>10000	>196
C[C@@H]1CN(c2ccc(C#N)c3nccnc23)C[C@H](CN2CCN(c3nccc(N4C[C@@H](N)[C@H](F)C4)n3)CC2)O1 [Example 119, 8-[(2S,6R)-2-[[4-[4-[(3R,4R)-3-amino-4-fluoro-pyrrolidin-1-yl]pyrimidin-2-yl]piperazin-1-yl]methyl]-6-methyl-morpholin-4-yl]quinoxaline-5-carbonitrile]	-12.5	-8.5	–	–	–	–	–
[2H]c1ccc2c(N3C[C@H](CN4CCN(c5nc(C)cc(N6C[C@H](OC)[C@@H](N)C6)n5)CC4)O[C@H](C)C3)ccc(C#N)c2n1 [Example 134, 5-[(2S,6R)-2-[[4-[4-[(3S,4S)-3-amino-4-methoxy-pyrrolidin-1-yl]-6-methyl-pyrimidin-2-yl]piperazin-1-yl]methyl]-6-methyl-morpholin-4-yl]-2-deuterio-quinoline-8-carbonitrile]	44.5	-4	–	–	–	–	–
[2H]c1ccc2c(N3C[C@H](CN4CCN(c5nc(C)cc(N6C[C@@H](N)[C@H](OC)C6)n5)CC4)O[C@H](C)C3)ccc(C#N)c2n1 [Example 144, 5-[(2S,6R)-2-[[4-[4-[(3R,4R)-3-amino-4-methoxy-pyrrolidin-1-yl]-6-methyl-pyrimidin-2-yl]piperazin-1-yl]methyl]-6-methyl-morpholin-4-yl]-2-deuterio-quinoline-8-carbonitrile]	–	–	> 10	> 20	>909	>10000	>322
